From patent publication US11939314B2, “Quinolin-2-one derivatives” (MERCK PATENT GMBH, priority 2016, dated 2024) come the findings set out here.

One test deals with T1, c-Kit(V654A) (Homo sapiens, UniProt P10721, V654A).
T1 construct: amino acids 544-end containing the V654A mutation; GST (N)
Briefly: c-Kit(V654A) assay. The format is biochemical. As to conditions: recombinant human c-Kit aa 544-end, 200 μM ATP, 1.4E-06 means 1.4×10^−6, read-out: Inhibition (IC50) of c-KIT (V654A). On the procedure: (§1) c-Kit(V654A) (N-terminal GST-tagged, recombinant human c-Kit, amino acids 544-end containing the V654A mutation) is incubated with 8 mM MOPS pH 7.0, 0.2 mM EDTA, 250 μM GGMEDIYEFMGGKKK, 10 mM MgAcetate and [gamma-33P-ATP] (specific activity approx. 500 cpm/pmol, concentration 200 μM). The reaction is initiated by the addition of the MgATP mix. After incubation for 40 minutes at room temperature, the reaction is stopped by the addition of 3% phosphoric acid solution. 10 μL of the reaction is then spotted onto a P30 filtermat and washed three times for 5 minutes in 75 mM phosphoric acid and once in methanol prior to drying and scintillation counting.

In the next test the target is T2, PDGFRalpha(V561D) (Homo sapiens, UniProt P16234, V561D).
T2 construct: recombinant human PDGFRalpha, amino acids 550end containing the V561 D mutation; 6His (N)
T2 sequence (P16234 550-1089 V561D): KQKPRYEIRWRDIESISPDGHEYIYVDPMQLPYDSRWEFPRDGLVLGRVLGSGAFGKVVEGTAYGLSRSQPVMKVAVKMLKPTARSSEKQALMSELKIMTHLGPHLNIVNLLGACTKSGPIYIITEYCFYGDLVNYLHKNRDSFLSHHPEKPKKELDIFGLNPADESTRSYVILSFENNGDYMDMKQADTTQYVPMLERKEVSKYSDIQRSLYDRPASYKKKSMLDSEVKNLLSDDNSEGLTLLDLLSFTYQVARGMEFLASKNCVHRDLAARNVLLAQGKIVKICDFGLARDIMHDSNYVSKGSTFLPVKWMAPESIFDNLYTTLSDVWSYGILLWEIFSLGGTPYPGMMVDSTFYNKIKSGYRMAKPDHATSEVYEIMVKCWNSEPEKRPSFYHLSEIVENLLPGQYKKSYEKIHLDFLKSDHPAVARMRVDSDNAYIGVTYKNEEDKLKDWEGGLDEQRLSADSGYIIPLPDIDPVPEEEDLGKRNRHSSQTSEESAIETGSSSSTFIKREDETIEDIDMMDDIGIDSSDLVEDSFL
The test is described as follows: PDGFRalpha(V561D) assay. The conditions noted are these: recombinant human PDGFRalpha aa 550-end, 200 μM ATP, 1.4E-06 means 1.4×10^−6, read-out: Inhibition (IC50) of PDGFRα (V561D). The format is biochemical. On the procedure: as §1, with “PDGFRalpha(V561D)” for “c-Kit(V654A)”, “6His-tagged,” for “GST-tagged,”, “PDGFRalpha,” for “c-Kit,”, “550end” for “544-end”, “V561 D” for “V654A”

Counter-ions that a name gives are not always drawn.

T1 sequence (P10721 544-976 V654A): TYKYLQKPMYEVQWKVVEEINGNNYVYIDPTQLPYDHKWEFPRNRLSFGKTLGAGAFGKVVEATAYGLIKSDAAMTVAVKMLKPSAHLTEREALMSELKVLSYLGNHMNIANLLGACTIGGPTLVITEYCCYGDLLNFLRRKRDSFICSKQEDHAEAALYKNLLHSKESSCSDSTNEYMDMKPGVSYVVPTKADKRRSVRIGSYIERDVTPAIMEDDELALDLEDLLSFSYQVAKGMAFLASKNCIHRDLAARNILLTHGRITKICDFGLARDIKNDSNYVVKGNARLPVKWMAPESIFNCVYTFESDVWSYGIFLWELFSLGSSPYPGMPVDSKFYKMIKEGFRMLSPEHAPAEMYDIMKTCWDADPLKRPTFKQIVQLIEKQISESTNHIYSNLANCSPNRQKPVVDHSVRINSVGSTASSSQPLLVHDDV

Turning to `CN1CCN(C(=O)c2ccc(-n3cc(-c4cc5cc(F)cnc5[nH]c4=O)nn3)cc2)CC1` [A67, 6-fluoro-3-{1-[4-(4-methyl-piperazine-1-carbonyl)-phenyl]-1H-[1,2,3]triazol-4-yl}-1H-[1,8]naphthyridin-2-one], the half-inhibitory concentration (IC50) is 24 nM at c-Kit(V654A) and 4 nM at PDGFRalpha(V561D).
For `O=C(c1ccc(-n2cc(-c3cc4cc(F)ccc4[nH]c3=O)nn2)cc1)N1CC[C@@H](F)C1` [A269, 6-fluoro-3-{1-[4-((R)-3-fluoro-pyrrolidine-1-carbonyl)-phenyl]-1H-[1,2,3]triazol-4-yl}-1H-quinolin-2-one], the IC50 is 31 nM on c-Kit(V654A) and 1.5 nM at PDGFRalpha(V561D).
For `COC[C@@H]1CC[C@@H](COC)N1C(=O)c1ccc(-n2cc(-c3cc4cc(F)c(F)cc4[nH]c3=O)nn2)cc1` [A219, 3-{1-[4-((2S,5S)-2,5-bis-methoxymethyl-pyrrolidine-1-carbonyl)-phenyl]-1H-[1,2,3]triazol-4-yl}-6,7-difluoro-1H-quinolin-2-one], in that order: 1600 nM and 320 nM.
For `CN(C)C[C@@H]1CCCN1C(=O)c1ccc(-n2cc(-c3cc4cc(F)ccc4[nH]c3=O)cn2)cc1` [A324, 3-{1-[4-((S)-2-dimethylaminomethyl-pyrrolidine-1-carbonyl)-phenyl]-1H-pyrazol-4-yl}-6-fluoro-1H-quinolin-2-one], in that order: 270 nM and 7.2 nM.
Turning to `CN1Cc2cc(-n3cc(-c4cc5cc(F)ccc5[nH]c4=O)nn3)ccc2C1=O` [A354, 6-fluoro-3-[1-(2-methyl-1-oxo-2,3-dihydro-1H-isoindol-5-yl)-1H-[1,2,3]triazol-4-yl]-1H-quinolin-2-one], the half-maximal inhibitory concentration (IC50) is 3100 nM at c-Kit(V654A) and 420 nM at PDGFRalpha(V561D).
For `O=C1COCCN1c1ccc(-n2cc(-c3cc4ccccc4[nH]c3=O)nn2)cn1` [A34, 3-{1-[6-(3-oxo-morpholin-4-yl)-pyridin-3-yl]-1H-[1,2,3]triazol-4-yl}-1H-quinolin-2-one], in that order: 5800 nM and 110 nM.
`O=C(c1ccc(-n2cc(-c3cc4cc(Cl)ccc4[nH]c3=O)nn2)cc1)N1CC2(COC2)C1` [A258, 6-chloro-3-{1-[4-(2-oxa-6-aza-spiro[3.3]heptane-6-carbonyl)-phenyl]-1H-[1,2,3]triazol-4-yl}-1H-quinolin-2-one]: the IC50 stood at 47 nM at c-Kit(V654A) and 86 nM at PDGFRalpha(V561D).
For `O=C(c1ccc(-n2cc(-c3cc4cc(Cl)ccc4[nH]c3=O)nn2)cc1)N1CCC[C@H]1CO` [A246, 6-chloro-3-{1-[4-((S)-2-hydroxymethyl-pyrrolidine-1-carbonyl)-phenyl]-1H-[1,2,3]triazol-4-yl}-1H-quinolin-2-one], the values for the half-maximal inhibitory concentration (IC50) at c-Kit(V654A) and at PDGFRalpha(V561D) were 23 nM and 7.4 nM, respectively.
In the same order, the values of `CN1CC[C@@H](Oc2ccc(-n3cc(-c4cc5cc(Cl)ccc5[nH]c4=O)nn3)cc2)C1` [A369, 6-chloro-3-{1-[4-((R)-1-methyl-pyrrolidin-3-yloxy)-phenyl]-1H-[1,2,3]triazol-4-yl}-1H-quinolin-2-one] are 13 nM and 34 nM.
In the same order, the values of `CN(C)C(=O)c1ccc(-n2cc(-c3cc4cc(Cl)cnc4[nH]c3=O)nn2)cc1` [A11, 4-[4-(6-chloro-2-oxo-1,2-dihydro-[1,8]naphthyridin-3-yl)-[1,2,3]triazol-1-yl]-N,N-dimethyl-benzamide] are 220 nM and 26 nM.
For `O=C(c1ccc(-n2cc(-c3cc4cc(F)ccc4[nH]c3=O)nn2)cc1)N1CCN[C@@H](CO)C1` [A314, 6-fluoro-3-{1-[4-((R)-3-hydroxymethyl-piperazine-1-carbonyl)-phenyl]-1H-[1,2,3]triazol-4-yl}-1H-quinolin-2-one hydrochloride], the half-maximal inhibitory concentration (IC50) is 72 nM at c-Kit(V654A) and 180 nM at PDGFRalpha(V561D).
For `COC[C@H]1CCN(C(=O)c2ccc(-n3cc(-c4cc5cc(F)ccc5[nH]c4=O)nn3)cc2)C1` [A202, 6-fluoro-3-{1-[4-((S)-3-methoxymethyl-pyrrolidine-1-carbonyl)-phenyl]-1H-[1,2,3]triazol-4-yl}-1H-quinolin-2-one], in that order: 57 nM and 16 nM.
For `CCN(CC)CCNC(=O)c1ccc(-n2cc(-c3cc4cc(F)ccc4[nH]c3=O)nn2)cc1` [A196, N-(2-diethylamino-ethyl)-4-[4-(6-fluoro-2-oxo-1,2-dihydro-quinolin-3-yl)-[1,2,3]triazol-1-yl]-benzamide], in that order: 44 nM and 110 nM.
Regarding `N[C@@H]1[C@H]2CN(C(=O)c3ccc(-n4cc(-c5cc6cc(F)ccc6[nH]c5=O)nn4)cc3)C[C@@H]12` [A317, 3-{1-[4-(6-amino-3-aza-bicyclo[3.1.0]hexane-3-carbonyl)-phenyl]-1H-[1,2,3]triazol-4-yl}-6-fluoro-1H-quinolin-2-one], the IC50 on c-Kit(V654A) came to 120 nM; on PDGFRalpha(V561D), 1400 nM.
In the same order, the values of `O=C(c1ccc(-n2cc(-c3cc4cc(F)ccc4[nH]c3=O)nn2)cc1)N1CCCC1` [A273, 6-fluoro-3-{1-[4-(pyrrolidine-1-carbonyl)-phenyl]-1H-[1,2,3]triazol-4-yl}-1H-quinolin-2-one] are 40 nM and 4.1 nM.
Take `O=C(c1ccc(-n2cc(-c3cc4cc(F)ccc4[nH]c3=O)nn2)cc1)C1CCNCC1` [A132, 6-fluoro-3-{1-[4-(piperidine-4-carbonyl)-phenyl]-1H-[1,2,3]triazol-4-yl}-1H-quinolin-2-one]: the IC50 came out at 7.5 nM at c-Kit(V654A) and 0.8 nM at PDGFRalpha(V561D).
As for `CCN(CC)CCNC(=O)c1ccc(-n2cc(-c3cc4cc(F)c(F)cc4[nH]c3=O)nn2)cc1` [A187, N-(2-diethylamino-ethyl)-4-[4-(6,7-difluoro-2-oxo-1,2-dihydro-quinolin-3-yl)-[1,2,3]triazol-1-yl]-benzamide], the values for the IC50 on c-Kit(V654A) and on PDGFRalpha(V561D) were 36 nM and 76 nM, respectively.
Take `CN1CCN(C(=O)c2ccc(-n3cc(-c4cc5cc(F)ccc5[nH]c4=O)cn3)cc2)CC1` [A296, 6-fluoro-3-{1-[4-(4-methyl-piperazine-1-carbonyl)-phenyl]-1H-pyrazol-4-yl}-1H-quinolin-2-one]: the results for the half-maximal inhibitory concentration (IC50) on c-Kit(V654A) and at PDGFRalpha(V561D) were 38 nM and 14 nM, respectively.
For `O=C(c1ccc(-n2cc(-c3cc4cc(F)ccc4[nH]c3=O)nn2)cc1)N1CC[C@H](O)C1` [A182, 6-fluoro-3-{1-[4-((S)-3-hydroxy-pyrrolidine-1-carbonyl)-phenyl]-1H-[1,2,3]triazol-4-yl}-1H-quinolin-2-one], in that order: 13 nM and 1.2 nM.
For `O=C(c1ccc(-n2cc(-c3cc4ccc(F)cc4[nH]c3=O)nn2)cc1)N1CCOCC1` [A83, 7-fluoro-3-{1-[4-(morpholine-4-carbonyl)-phenyl]-1H-[1,2,3]triazol-4-yl}-1H-quinolin-2-one], in that order: 10 nM and 3 nM.
In the same order, the values of `CN1CCN(C(=O)c2ccc(-n3cc(-c4cc5ccc(Cl)cc5[nH]c4=O)nn3)cc2)CC1=O` [A97, 7-chloro-3-{1-[4-(4-methyl-3-oxo-piperazine-1-carbonyl)-phenyl]-1H-[1,2,3]triazol-4-yl}-1H-quinolin-2-one] are 17 nM and 10 nM.
In the case of `COCCNC(=O)c1ccc(-n2cc(-c3cc4cccnc4[nH]c3=O)nn2)cc1` [A9, N-(2-methoxy-ethyl)-4-[4-(2-oxo-1,2-dihydro-[1,8]naphthyridin-3-yl)-[1,2,3]triazol-1-yl]-benzamide], the values for the IC50 at c-Kit(V654A) and at PDGFRalpha(V561D) were 760 nM and 230 nM, respectively.

A word on the IC50: it is the concentration needed to halve the response being measured.
